Assay results as given in US10457691B2, “Macrocyclic kinase inhibitors and uses thereof” (Dana-Farber Cancer Institute, Inc., priority 2014, dated 2019).

Assays:
Assay type in all cases: biochemical
ERK1 = ERK1 (Homo sapiens, UniProt P27361); assay: Protein kinase assay ([γ-32P] ATP), ERK1; details: read-out: Activity of the protein kinase when treated with compound I-1 (% control)
Protocol: (§1) In another set of experiments, the activities of the compounds described herein against various protein kinases were determined according to the methods reported in Hastie et al., Nature Protocols, 2006, 1, 968-971.
(§2) Enzyme dilution buffer. This buffer consisted of 50 mM Tris-HCl, pH 7.5, 0.1 mM EGTA, 1 mg ml^−1 bovine serum albumin and 0.1% (vol/vol) 2-mercaptoethanol.
(§3) 10× concentrated assay buffer. An assay buffer of 500 mM Tris-HCl, pH 7.5, 1 mM EGTA, and 100 mM magnesium acetate was used for assay of a wide variety of protein kinases. In some experiments, other cofactors were included (e.g., calcium ions and calmodulin were included for assay of calcium-calmodulindependent protein kinases).
(§4) 1 mM [γ-^32P] ATP. The specific activity of the [γ-^32P] ATP solution was 1×10^5 to 1×10^6 c.p.m. per nmol depending on what was needed to produce an optimal signal/noise ratio. […] To measure the concentration of ATP, a sample of such a stock solution was diluted to 20 μM, and the absorbance of the diluted sample was measured at 259 nm. The absorbance of a 20-μM stock solution of ATP at 259 nm was about 0.31. […] ATP to produce a radioactivity of 1×10^5 to 1×10^6 c.p.m. per nmol. […]
(§5) 13) Measure radioactivity in the samples by Cerenkov counting (e.g., without liquid scintillation fluid) in a liquid scintillation counter using a “^32P program”. […]

YES1 = YES1 (Homo sapiens, UniProt P07947); assay: Protein kinase assay ([γ-32P] ATP), YES1; details: read-out: Activity of the protein kinase when treated with compound I-1 (% control)
Protocol: as §1, §2, §3, §4, §5

IGF-1R = IGF-1R (Homo sapiens, UniProt P08069); assay: Protein kinase assay ([γ-32P] ATP), IGF-1R; details: read-out: Activity of the protein kinase when treated with compound I-1 (% control)
Protocol: as §1, §2, §3, §4, §5

S6K1 = S6K1 (Homo sapiens, UniProt P23443); assay: Protein kinase assay ([γ-32P] ATP), S6K1; details: read-out: Activity of the protein kinase when treated with compound I-1 (% control)
Sequence of S6K1 (P23443 whole entry, species assumed): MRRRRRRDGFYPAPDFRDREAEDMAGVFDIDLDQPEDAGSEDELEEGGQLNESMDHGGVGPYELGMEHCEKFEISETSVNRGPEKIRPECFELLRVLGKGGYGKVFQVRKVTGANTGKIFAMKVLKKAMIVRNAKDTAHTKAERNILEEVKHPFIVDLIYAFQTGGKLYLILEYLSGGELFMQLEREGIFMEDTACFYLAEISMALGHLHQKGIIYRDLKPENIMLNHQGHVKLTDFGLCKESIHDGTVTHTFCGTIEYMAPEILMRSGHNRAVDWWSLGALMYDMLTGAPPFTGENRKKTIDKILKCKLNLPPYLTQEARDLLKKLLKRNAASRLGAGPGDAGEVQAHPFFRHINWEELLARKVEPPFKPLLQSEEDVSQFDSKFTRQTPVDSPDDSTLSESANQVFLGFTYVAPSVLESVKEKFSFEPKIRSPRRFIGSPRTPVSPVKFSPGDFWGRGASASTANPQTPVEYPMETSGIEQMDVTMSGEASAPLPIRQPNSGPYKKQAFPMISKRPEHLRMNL
Protocol: as §1, §2, §3, §4, §5

PRAK = PRAK (Homo sapiens, UniProt Q8IW41); assay: Protein kinase assay ([γ-32P] ATP), PRAK; details: read-out: Activity of the protein kinase when treated with compound I-1 (% control)
Protocol: as §1, §2, §3, §4, §5

EPH-B2 = EPH-B2 (Homo sapiens, UniProt P29323); assay: Protein kinase assay ([γ-32P] ATP), EPH-B2; details: read-out: Activity of the protein kinase when treated with compound I-1 (% control)
Sequence of EPH-B2 (P29323 19-1055): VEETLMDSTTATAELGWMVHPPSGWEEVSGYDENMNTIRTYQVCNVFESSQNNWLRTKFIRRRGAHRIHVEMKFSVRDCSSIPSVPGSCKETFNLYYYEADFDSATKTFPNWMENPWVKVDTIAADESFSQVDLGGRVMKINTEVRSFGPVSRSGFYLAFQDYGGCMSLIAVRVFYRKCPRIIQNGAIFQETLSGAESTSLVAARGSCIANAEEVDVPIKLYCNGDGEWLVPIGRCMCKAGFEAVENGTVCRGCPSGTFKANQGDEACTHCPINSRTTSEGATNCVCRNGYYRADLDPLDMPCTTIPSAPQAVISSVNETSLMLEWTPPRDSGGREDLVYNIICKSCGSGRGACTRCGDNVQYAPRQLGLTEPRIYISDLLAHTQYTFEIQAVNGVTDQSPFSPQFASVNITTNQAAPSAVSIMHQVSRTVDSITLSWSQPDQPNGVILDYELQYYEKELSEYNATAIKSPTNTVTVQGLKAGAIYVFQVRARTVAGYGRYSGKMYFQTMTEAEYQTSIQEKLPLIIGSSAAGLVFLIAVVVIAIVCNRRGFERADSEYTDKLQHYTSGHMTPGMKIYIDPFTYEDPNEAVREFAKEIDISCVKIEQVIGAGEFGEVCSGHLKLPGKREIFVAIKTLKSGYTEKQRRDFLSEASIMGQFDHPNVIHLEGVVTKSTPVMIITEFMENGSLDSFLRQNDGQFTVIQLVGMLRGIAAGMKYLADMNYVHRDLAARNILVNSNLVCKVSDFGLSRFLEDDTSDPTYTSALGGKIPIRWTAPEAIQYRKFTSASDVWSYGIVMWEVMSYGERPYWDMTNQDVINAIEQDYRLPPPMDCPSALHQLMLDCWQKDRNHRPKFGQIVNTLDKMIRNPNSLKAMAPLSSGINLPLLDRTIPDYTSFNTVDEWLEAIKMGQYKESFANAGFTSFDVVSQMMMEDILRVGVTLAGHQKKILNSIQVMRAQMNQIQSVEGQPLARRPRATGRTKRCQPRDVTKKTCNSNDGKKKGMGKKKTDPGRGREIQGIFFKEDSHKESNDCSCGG
Protocol: as §1, §2, §3, §4, §5

SmMLCK = SmMLCK (Homo sapiens, UniProt Q15746); assay: Protein kinase assay ([γ-32P] ATP), SmMLCK; details: read-out: Activity of the protein kinase when treated with compound I-1 (% control)
Protocol: as §1, §2, §3, §4, §5

BRSK1 = BRSK1 (Homo sapiens, UniProt Q8TDC3); assay: Protein kinase assay ([γ-32P] ATP), BRSK1; details: read-out: Activity of the protein kinase when treated with compound I-1 (% control)
Protocol: as §1, §2, §3, §4, §5

IRAK1 = IRAK1 (Homo sapiens, UniProt P51617); assay: Protein kinase assay ([γ-32P] ATP), IRAK1; details: read-out: Activity of the protein kinase when treated with compound I-1 (% control)
Protocol: as §1, §2, §3, §4, §5

EPH-A4 = EPH-A4 (Homo sapiens, UniProt P54764); assay: Protein kinase assay ([γ-32P] ATP), EPH-A4; details: read-out: Activity of the protein kinase when treated with compound I-1 (% control)
Protocol: as §1, §2, §3, §4, §5

JNK1 = JNK1 (Homo sapiens, UniProt P45983); assay: Protein kinase assay ([γ-32P] ATP), JNK1; details: read-out: Activity of the protein kinase when treated with compound I-1 (% control)
Protocol: as §1, §2, §3, §4, §5

CK2 = assay: Protein kinase assay ([γ-32P] ATP), CK2
Protocol: as §1, §2, §3, §4, §5

TTBK1 = TTBK1 (Homo sapiens, UniProt Q5TCY1); assay: Protein kinase assay ([γ-32P] ATP), TTBK1; details: read-out: Activity of the protein kinase when treated with compound I-1 (% control)
Sequence of TTBK1 (Q5TCY1 whole entry, species assumed): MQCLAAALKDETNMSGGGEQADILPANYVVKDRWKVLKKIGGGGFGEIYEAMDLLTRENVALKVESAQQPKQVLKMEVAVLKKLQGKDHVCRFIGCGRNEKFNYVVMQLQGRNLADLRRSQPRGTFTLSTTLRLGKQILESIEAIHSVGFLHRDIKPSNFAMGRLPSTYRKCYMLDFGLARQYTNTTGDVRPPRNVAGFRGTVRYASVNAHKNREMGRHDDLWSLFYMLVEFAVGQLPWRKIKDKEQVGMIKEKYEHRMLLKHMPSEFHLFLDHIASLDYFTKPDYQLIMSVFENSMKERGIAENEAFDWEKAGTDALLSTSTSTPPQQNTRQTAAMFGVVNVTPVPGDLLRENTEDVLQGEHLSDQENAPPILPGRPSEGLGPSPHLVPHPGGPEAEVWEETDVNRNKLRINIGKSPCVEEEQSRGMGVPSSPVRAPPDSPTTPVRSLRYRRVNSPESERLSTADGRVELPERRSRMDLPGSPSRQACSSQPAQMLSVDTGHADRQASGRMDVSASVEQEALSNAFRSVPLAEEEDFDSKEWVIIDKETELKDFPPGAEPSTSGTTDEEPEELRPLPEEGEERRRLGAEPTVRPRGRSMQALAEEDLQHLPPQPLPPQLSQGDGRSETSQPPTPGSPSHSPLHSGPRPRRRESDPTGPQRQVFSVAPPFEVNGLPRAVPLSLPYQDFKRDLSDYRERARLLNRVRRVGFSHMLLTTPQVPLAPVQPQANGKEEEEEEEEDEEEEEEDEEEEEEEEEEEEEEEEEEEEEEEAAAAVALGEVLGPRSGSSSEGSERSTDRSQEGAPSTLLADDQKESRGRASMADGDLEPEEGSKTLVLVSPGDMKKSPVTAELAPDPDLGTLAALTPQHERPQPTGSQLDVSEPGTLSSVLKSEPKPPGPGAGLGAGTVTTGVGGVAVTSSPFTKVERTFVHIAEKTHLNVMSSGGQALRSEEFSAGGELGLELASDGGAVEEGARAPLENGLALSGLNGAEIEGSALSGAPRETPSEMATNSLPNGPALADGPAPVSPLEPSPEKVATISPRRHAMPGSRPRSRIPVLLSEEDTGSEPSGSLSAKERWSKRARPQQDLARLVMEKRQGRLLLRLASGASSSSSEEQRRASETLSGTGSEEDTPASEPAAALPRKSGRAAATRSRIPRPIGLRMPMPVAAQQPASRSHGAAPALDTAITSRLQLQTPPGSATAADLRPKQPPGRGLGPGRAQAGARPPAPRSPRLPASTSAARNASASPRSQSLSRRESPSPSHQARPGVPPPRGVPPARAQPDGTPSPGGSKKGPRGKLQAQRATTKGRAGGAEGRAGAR
Protocol: as §1, §2, §3, §4, §5

SYK = SYK (Homo sapiens, UniProt P43405); assay: Protein kinase assay ([γ-32P] ATP), SYK; details: read-out: Activity of the protein kinase when treated with compound I-1 (% control)
Protocol: as §1, §2, §3, §4, §5

BTK = BTK (Homo sapiens, UniProt Q06187); assay: Protein kinase assay ([γ-32P] ATP), BTK; details: read-out: Activity of the protein kinase when treated with compound I-1 (% control)
Sequence of BTK (Q06187 whole entry): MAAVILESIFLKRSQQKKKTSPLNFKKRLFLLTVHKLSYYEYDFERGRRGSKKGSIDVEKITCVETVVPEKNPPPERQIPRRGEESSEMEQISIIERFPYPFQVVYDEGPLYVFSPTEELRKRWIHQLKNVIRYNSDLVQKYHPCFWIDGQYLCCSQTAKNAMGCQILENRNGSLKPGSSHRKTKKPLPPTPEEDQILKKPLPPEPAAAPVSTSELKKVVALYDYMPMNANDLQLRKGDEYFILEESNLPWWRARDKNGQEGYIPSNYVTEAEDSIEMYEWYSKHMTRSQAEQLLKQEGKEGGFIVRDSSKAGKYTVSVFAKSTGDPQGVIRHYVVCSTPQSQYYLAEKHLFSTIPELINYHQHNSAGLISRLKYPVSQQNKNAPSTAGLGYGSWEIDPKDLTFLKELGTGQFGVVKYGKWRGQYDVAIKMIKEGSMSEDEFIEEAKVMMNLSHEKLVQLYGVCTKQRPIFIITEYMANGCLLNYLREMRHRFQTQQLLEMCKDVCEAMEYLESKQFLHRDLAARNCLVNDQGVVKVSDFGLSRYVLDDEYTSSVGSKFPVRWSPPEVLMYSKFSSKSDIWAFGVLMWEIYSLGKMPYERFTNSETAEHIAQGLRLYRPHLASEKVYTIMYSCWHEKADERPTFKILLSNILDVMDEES
Protocol: as §1, §2, §3, §4, §5

MSK1 = MSK1 (Homo sapiens, UniProt O75582); assay: Protein kinase assay ([γ-32P] ATP), MSK1; details: read-out: Activity of the protein kinase when treated with compound I-1 (% control)
Sequence of MSK1 (O75582 whole entry): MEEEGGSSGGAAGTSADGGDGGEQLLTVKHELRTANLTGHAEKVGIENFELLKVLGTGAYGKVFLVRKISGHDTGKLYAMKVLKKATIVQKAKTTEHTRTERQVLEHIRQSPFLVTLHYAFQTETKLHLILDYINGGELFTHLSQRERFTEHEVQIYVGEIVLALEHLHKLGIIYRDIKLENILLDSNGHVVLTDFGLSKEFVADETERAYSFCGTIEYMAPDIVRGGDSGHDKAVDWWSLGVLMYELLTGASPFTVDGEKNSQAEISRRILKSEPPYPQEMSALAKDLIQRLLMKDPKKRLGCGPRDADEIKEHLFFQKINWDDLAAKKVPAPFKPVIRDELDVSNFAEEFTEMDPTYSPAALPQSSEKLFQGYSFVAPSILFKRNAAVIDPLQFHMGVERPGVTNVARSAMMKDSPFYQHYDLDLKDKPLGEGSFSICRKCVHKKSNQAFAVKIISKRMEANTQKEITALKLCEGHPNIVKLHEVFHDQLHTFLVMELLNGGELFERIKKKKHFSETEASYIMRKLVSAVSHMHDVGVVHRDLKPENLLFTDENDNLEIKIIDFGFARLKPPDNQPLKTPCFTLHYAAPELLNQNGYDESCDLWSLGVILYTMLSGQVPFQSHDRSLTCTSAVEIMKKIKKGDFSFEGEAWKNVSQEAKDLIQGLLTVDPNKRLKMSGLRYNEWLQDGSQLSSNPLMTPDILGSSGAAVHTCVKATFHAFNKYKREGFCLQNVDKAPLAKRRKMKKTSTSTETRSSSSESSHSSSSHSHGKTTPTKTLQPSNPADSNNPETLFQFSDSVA
Protocol: as §1, §2, §3, §4, §5

Aurora A = Aurora A (Homo sapiens, UniProt O14965); assay: Protein kinase assay ([γ-32P] ATP), Aurora A; details: read-out: Activity of the protein kinase when treated with compound I-1 (% control)
Sequence of Aurora A (O14965 whole entry): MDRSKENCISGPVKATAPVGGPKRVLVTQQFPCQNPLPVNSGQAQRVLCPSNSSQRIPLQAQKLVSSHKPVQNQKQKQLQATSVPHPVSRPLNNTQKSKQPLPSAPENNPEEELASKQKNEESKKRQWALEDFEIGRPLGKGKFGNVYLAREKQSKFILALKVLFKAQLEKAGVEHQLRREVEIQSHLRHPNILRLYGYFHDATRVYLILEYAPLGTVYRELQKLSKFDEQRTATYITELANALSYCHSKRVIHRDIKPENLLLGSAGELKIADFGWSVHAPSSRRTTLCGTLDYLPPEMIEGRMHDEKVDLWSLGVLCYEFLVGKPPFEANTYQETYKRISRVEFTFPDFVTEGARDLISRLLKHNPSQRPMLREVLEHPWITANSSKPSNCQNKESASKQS
Protocol: as §1, §2, §3, §4, §5

[1] = 0.1 μM of compound I-1, DMSO control = 100%
[2] = 1 μM of compound I-1, DMSO control = 100%

Question: How did the remaining activity at 0.1 µM (ERK1; [1]) turn out when `Cc1cccc(C)c1NC(=O)N1C/C=C\COc2cccc(c2)Nc2cc1ncn2` [Compound I-1] was run?
Answer: 97%

Question: What about the remaining activity at 1 µM (ERK1; [2]) of the same compound?
Answer: 87%

Question: And the remaining activity at 0.1 µM (YES1; [1])?
Answer: 10%

Question: What about the remaining activity at 1 µM (YES1; [2]) of the same compound?
Answer: 15%

Question: And the remaining activity at 0.1 µM (IGF-1R; [1])?
Answer: 109%

Question: What about the remaining activity at 1 µM (IGF-1R; [2]) of the same compound?
Answer: 61%

Question: What about the remaining activity at 0.1 µM (S6K1; [1]) of the same compound?
Answer: 105%

Question: What about the remaining activity at 1 µM (S6K1; [2]) of the same compound?
Answer: 83%

Question: What about the remaining activity at 0.1 µM (PRAK; [1]) of the same compound?
Answer: 107%

Question: And the remaining activity at 1 µM (PRAK; [2])?
Answer: 84%

Question: What about the remaining activity at 0.1 µM (EPH-B2; [1]) of the same compound?
Answer: 54%

Question: And the remaining activity at 1 µM (EPH-B2; [2])?
Answer: 1%

Question: And the remaining activity at 0.1 µM (SmMLCK; [1])?
Answer: 91%

Question: What about the remaining activity at 1 µM (SmMLCK; [2]) of the same compound?
Answer: 85%

Question: And the remaining activity at 0.1 µM (BRSK1; [1])?
Answer: 87%

Question: And the remaining activity at 1 µM (BRSK1; [2])?
Answer: 66%

Question: And the remaining activity at 0.1 µM (IRAK1; [1])?
Answer: 105%

Question: What about the remaining activity at 1 µM (IRAK1; [2]) of the same compound?
Answer: 83%

Question: What about the remaining activity at 0.1 µM (EPH-A4; [1]) of the same compound?
Answer: 8%

Question: And the remaining activity at 1 µM (EPH-A4; [2])?
Answer: 3%

Question: What about the remaining activity at 0.1 µM (JNK1; [1]) of the same compound?
Answer: 93%

Question: And the remaining activity at 1 µM (JNK1; [2])?
Answer: 72%

Question: And the “Activity of the protein kinase when treated with compound I-1 (% control)” value (CK2; [1])?
Answer: 97 % control

Question: And the “Activity of the protein kinase when treated with compound I-1 (% control)” value (CK2; [2])?
Answer: 91 % control

Question: What about the remaining activity at 0.1 µM (TTBK1; [1]) of the same compound?
Answer: 115%

Question: What about the remaining activity at 1 µM (TTBK1; [2]) of the same compound?
Answer: 80%

Question: What about the remaining activity at 0.1 µM (SYK; [1]) of the same compound?
Answer: 100%

Question: And the remaining activity at 1 µM (SYK; [2])?
Answer: 91%

Question: What about the remaining activity at 0.1 µM (BTK; [1]) of the same compound?
Answer: 46%

Question: And the remaining activity at 1 µM (BTK; [2])?
Answer: 48%

Question: What about the remaining activity at 0.1 µM (MSK1; [1]) of the same compound?
Answer: 107%

Question: What about the remaining activity at 1 µM (MSK1; [2]) of the same compound?
Answer: 81%

Question: What about the remaining activity at 0.1 µM (Aurora A; [1]) of the same compound?
Answer: 102%

Question: What about the remaining activity at 1 µM (Aurora A; [2]) of the same compound?
Answer: 103%
